Assay results as given in DBAASP.
≈ marks a conversion by molar mass, not a printed value. Where “and” joins values, the source holds several entries; their conditions need not be identical. Equal entries are not always repeated.

system: Escherichia coli ATCC 25922; assay: ≥ marks a high value that may be exact or a test limit, other limits are often not marked, values filed in µg/mL are converted to µM

| Compound | MIC |
| --- | --- |
| CC[C@H](C)[C@H](NC(=O)CNC(=O)[C@H](C)NC(=O)[C@@H](NC(=O)[C@H](CC(N)=O)NC(=O)[C@H](CCCCN)NC(=O)[C@H](C)NC(=O)[C@H](C)NC(=O)CNC(=O)[C@H](CCCCN)NC(=O)[C@@H](NC(=O)[C@@H](NC(=O)[C@H](CC(=O)O)NC(=O)[C@H](CC(C)C)NC(=O)[C@H](CC(C)C)NC(=O)[C@H](CC(C)C)NC(=O)CN)[C@@H](C)O)C(C)C)C(C)C)C(=O)N[C@@H](CC(C)C)C(=O)N[C@@H](CC(C)C)C(=O)N[C@@H](CC(N)=O)C(=O)N[C@@H](CCCCN)C(=O)N[C@@H](CC(C)C)C(=O)N[C@@H](CCCCN)C(=O)N[C@H]1CSSC[C@@H](C(=O)O)NC(=O)[C@H](CC(=O)O)NC(=O)CNC(=O)[C@H]([C@@H](C)O)NC(=O)[C@H](CCSC)NC(=O)[C@H](CCCCN)NC1=O [GLLLDTVKGAAKNVAGILLNKLKCKMTGDC] | 4.05 µM (≈ 12.5 µg/mL) |
| CSCC[C@H](NC(=O)[C@H](CCCN=C(N)N)NC(=O)[C@H](Cc1c[nH]c2ccccc12)NC(=O)[C@H](CCC(N)=O)NC(=O)[C@H](Cc1c[nH]c2ccccc12)NC(=O)[C@H](CCCN=C(N)N)NC(=O)[C@@H](N)CCCN=C(N)N)C(=O)N[C@@H](CCCCN)C(=O)N[C@@H](CCCCN)C(=O)O [RRWQWRMKK] | 186 µM (≈ 256 µg/mL) |
| CC(C)C[C@H](NC(=O)[C@H](Cc1ccccc1)NC(=O)[C@@H]1CCCN1C(=O)[C@H](Cc1c[nH]c2ccccc12)NC(=O)[C@H](Cc1c[nH]c2ccccc12)NC(=O)[C@H](Cc1c[nH]c2ccccc12)NC(=O)[C@H](C)NC(=O)[C@H](Cc1ccccc1)NC(=O)[C@H](CCCCN)NC(=O)[C@H](CCCCN)NC(=O)[C@@H](N)C(C)C)C(=O)N[C@@H](CCCCN)C(=O)N[C@@H](CCCCN)C(N)=O [VKKFAWWWPFLKK] | 32 µM (≈ 56.4 µg/mL) |

Further lines, results first:

| MIC | Compound |
| --- | --- |
| 16.7 µM and 33.5 µM | CC[C@H](C)[C@H](NC(=O)[C@H](CCCCN)NC(=O)[C@H](CCCCN)NC(=O)[C@@H](NC(=O)[C@@H](NC(=O)[C@H](CCCCN)NC(=O)[C@H](Cc1ccccc1)NC(=O)[C@H](CC(C)C)NC(=O)CN)[C@@H](C)CC)[C@@H](C)CC)C(=O)N[C@@H](C)C(=O)N[C@@H](CCCCN)C(=O)N[C@@H](CO)C(=O)N[C@@H](Cc1ccccc1)C(N)=O [GLFKIIKKIAKSF] |
| 30 µM (≈ 88.1 µg/mL) | CC[C@H](C)[C@H](NC(=O)[C@@H](NC(=O)[C@H](CC(=O)O)NC(=O)[C@H](CC(C)C)NC(=O)[C@H](CC(C)C)NC(=O)[C@H](CCC(N)=O)NC(=O)CNC(=O)[C@H](C)NC(=O)[C@H](CC(C)C)NC(=O)[C@H](CC(N)=O)NC(=O)[C@H](CCCCN)NC(=O)[C@H](C)NC(=O)[C@H](C)NC(=O)[C@H](CC(N)=O)NC(=O)[C@H](CCCCN)NC(=O)[C@@H](NC(=O)[C@@H](NC(=O)[C@H](CC(=O)O)NC(=O)[C@H](CCSC)NC(=O)[C@H](CC(C)C)NC(=O)CN)[C@@H](C)O)C(C)C)[C@@H](C)O)C(=O)N[C@@H](CCCCN)C(=O)N[C@H]1CSSC[C@@H](C(=O)O)NC(=O)CNC(=O)[C@H]([C@@H](C)O)NC(=O)[C@H](CCSC)NC(=O)[C@H](CCCCN)NC1=O [GLMDTVKNAAKNLAGQLLDTIKCKMTGC] |
| 8 µM (≈ 14.3 µg/mL) | CC(C)C[C@H](NC(=O)[C@H](Cc1ccccc1)NC(=O)[C@@H]1CCCN1C(=O)[C@H](C)NC(=O)[C@H](Cc1c[nH]c2ccccc12)NC(=O)[C@H](Cc1c[nH]c2ccccc12)NC(=O)[C@@H]1CCCN1C(=O)[C@H](Cc1ccccc1)NC(=O)[C@H](CCCN=C(N)N)NC(=O)[C@H](CCCN=C(N)N)NC(=O)[C@@H](N)C(C)C)C(=O)N[C@@H](CCCN=C(N)N)C(=O)N[C@@H](CCCN=C(N)N)C(N)=O [VRRFPWWAPFLRR] |
